In the supplement of paper PMC13380429:

Columns and labels:
Settings in all cases: 72 h
[1] = tested on: HepG2; assay: relative viability EC50 (midpoint between 100% and the lowest measured viability); higher = less toxic
[2] = tested on: U2OS; assay: as above
[3] = tested on: Calu-3; assay: as above
[4] = tested on: Vero E6; assay: as above
[5] = tested on: Caco-2; assay: as above
[6] = tested on: HepG2; assay: drug sensitivity score (DSS) for viability; higher = more toxic; extreme values may be limits of the assay
[7] = tested on: U2OS; assay: as above
[8] = tested on: Calu-3; assay: as above
[9] = tested on: Vero E6; assay: as above
[10] = tested on: Caco-2; assay: as above
[11] = tested on: HepG2; assay: cell viability relative to DMSO; higher = less toxic
[12] = tested on: U2OS; assay: as above
[13] = tested on: Calu-3; assay: as above
[14] = tested on: Vero E6; assay: as above
[15] = tested on: Caco-2; assay: as above

Structure (SMILES)	relative viability EC50 [1]	relative viability EC50 [2]	relative viability EC50 [3]	relative viability EC50 [4]	relative viability EC50 [5]	drug sensitivity score [6]	drug sensitivity score [7]	drug sensitivity score [8]	drug sensitivity score [9]	drug sensitivity score [10]	cell viability ([11]; 1 nM)	cell viability ([11]; 10 nM)	cell viability ([11]; 100 nM)	cell viability ([11]; 1000 nM)	cell viability ([11]; 10000 nM)	cell viability ([12]; 1 nM)	cell viability ([12]; 10 nM)	cell viability ([12]; 100 nM)	cell viability ([12]; 1000 nM)	cell viability ([12]; 10000 nM)	cell viability ([13]; 1 nM)	cell viability ([13]; 10 nM)	cell viability ([13]; 100 nM)	cell viability ([13]; 1000 nM)	cell viability ([13]; 10000 nM)	cell viability ([14]; 1 nM)	cell viability ([14]; 10 nM)	cell viability ([14]; 100 nM)	cell viability ([14]; 1000 nM)	cell viability ([14]; 10000 nM)	cell viability ([15]; 1 nM)	cell viability ([15]; 10 nM)	cell viability ([15]; 100 nM)	cell viability ([15]; 1000 nM)	cell viability ([15]; 10000 nM)
CCN(CC)CCNC(=O)c1ccc(I)cc1 [I-BZA]	> 10 µM	> 10 µM	> 10 µM	> 10 µM	> 10 µM	0	0	0	0	0	93.9%	101%	98.9%	102%	93.1%	99.7%	94.7%	98.5%	95.8%	101%	93.3%	101%	96.3%	105%	114%	91.3%	104%	95%	101%	94.8%	96.9%	95.9%	104%	106%	104%
O=C(Nc1ccc(C(=O)O)c(O)c1)c1ccccc1 [benzoylpas]	> 10 µM	> 10 µM	> 10 µM	> 10 µM	> 10 µM	0	0	0	0	0	93.5%	97%	97.7%	98.6%	107%	100%	102%	92.8%	95.9%	101%	94.1%	106%	97.9%	90.3%	91.1%	99.8%	96.8%	105%	97.4%	103%	93%	97.5%	91.9%	97.5%	92%
CC1(CN2CCC(n3c(=O)[nH]c4ccccc43)CC2)OCc2ccccc2-n2cccc21 (stereo not given) [zaldaride]	> 10 µM	> 10 µM	> 10 µM	> 10 µM	> 10 µM	0.7	0	0	0	0	94.9%	96.4%	86.6%	104%	76%	102%	94.6%	98%	95.7%	99.1%	86.3%	96.1%	101%	84.7%	94.5%	98.9%	97.7%	98.7%	100%	89.9%	99.6%	91.6%	101%	88.1%	93.1%
Fc1ccc(-c2nc(-c3c(F)cccc3F)[nH]c2-c2ccncc2)cc1 [TA-01]	> 10 µM	> 10 µM	> 10 µM	> 10 µM	> 10 µM	0	0	1.6	0	1.5	108%	97.3%	94.3%	99.4%	98.4%	108%	112%	101%	98.6%	95.9%	104%	107%	97.2%	85.2%	94.6%	112%	106%	95%	94.7%	93.7%	105%	109%	99.9%	84.7%	96.1%
CCC[C@H](NC(=O)/C(C#N)=C/c1cccc(Br)n1)c1ccccc1 [WP1130]	3.18 µM	2.74 µM	3.94 µM	2.98 µM	2.43 µM	5.5	6.3	4	5.7	5.5	99.8%	105%	101%	100%	0.8%	95.7%	108%	97.5%	94.6%	0.9%	100%	97.1%	90.7%	118%	10.8%	101%	100%	100%	97.6%	3.5%	106%	103%	93.2%	93%	21.3%
OCc1cc([C@@H](O)CNCCCCCCOCCOCc2c(Cl)cccc2Cl)ccc1O [vilanterol]	> 10 µM	> 10 µM	> 10 µM	> 10 µM	> 10 µM	0	0	0	0	0	97.8%	96.5%	89.5%	104%	109%	96.8%	96.1%	101%	100%	94%	99%	100%	89.8%	102%	97%	95.3%	99.7%	89.2%	98.9%	107%	94%	93.5%	96%	96.2%	94.3%
c1ccc(COCCCc2c[nH]cn2)cc1 [proxyfan]	> 10 µM	> 10 µM	> 10 µM	> 10 µM	> 10 µM	0	0	0	0	0	97.9%	108%	97.7%	103%	107%	99.6%	97.8%	102%	97.5%	101%	101%	101%	98.4%	103%	105%	96.9%	95.8%	95.9%	99%	93.3%	96.4%	92.9%	93.5%	91.6%	95.6%
CCOC(=O)Nc1ccc2c(c1)N(C(=O)CN(C)C)c1ccccc1CC2 [tiracizine]	> 10 µM	> 10 µM	> 10 µM	> 10 µM	> 10 µM	0	0	0	0	0	106%	95.4%	111%	87.6%	102%	99.9%	104%	96.5%	101%	99.7%	107%	103%	87%	85%	106%	99.8%	99.2%	97.3%	97.9%	97.8%	106%	105%	105%	98.9%	100%
CC1CCc2c(N3CCC(O)CC3)c(F)cc3c(=O)c(C(=O)O)cn1c23 (stereo not given) [nadifloxacin]	> 10 µM	> 10 µM	> 10 µM	> 10 µM	> 10 µM	0	0	0	0	0	97%	111%	108%	103%	107%	98.9%	97.5%	98.6%	96.1%	106%	97.6%	96.4%	102%	105%	107%	94.5%	100%	97.9%	95.7%	106%	104%	92.1%	94.7%	114%	96.2%
C[C@]12C=CC(=O)C=C1CC[C@@H]1[C@@H]2[C@@H](O)C[C@@]2(C)[C@H]1CC[C@]2(O)C(=O)COC(=O)CCC(=O)O [prednisolone-hemisuccinate]	> 10 µM	> 10 µM	> 10 µM	> 10 µM	> 10 µM	0	0	0	0	1.1	112%	92.5%	91.7%	98.5%	108%	97.5%	103%	96%	100%	93.6%	98.6%	102%	97.2%	102%	88.9%	99.3%	99.9%	95.8%	90%	98.6%	94.7%	103%	93.3%	91.3%	79.8%
COC(=O)C1=C(C)NC(C)=C(C(=O)OCCSc2ccccc2)[C@@H]1C [PCA-4248]	> 10 µM	> 10 µM	> 10 µM	> 10 µM	> 10 µM	0	0	0.1	0	0.8	92%	90.3%	93.4%	94.6%	95.9%	98%	95.9%	93.6%	92.9%	96.1%	93.8%	95.6%	104%	99%	87.7%	98.1%	99.1%	98.2%	96.5%	98.8%	97.7%	99.4%	102%	94.8%	84%
O=C(c1ccc(Cl)o1)N1CC2CNCC2C1 (stereo not given) [AZD1446]	> 10 µM	> 10 µM	> 10 µM	> 10 µM	> 10 µM	0	0	0	0	0	99.3%	93.1%	90.2%	99.1%	88%	99.6%	98.6%	96.1%	97.7%	97.8%	112%	89.8%	94.4%	89.4%	107%	96.4%	98.2%	98.7%	99.6%	91.3%	103%	97.8%	97%	103%	103%
CC1=CC(=C(c2ccc(N)cc2)c2ccc(N)cc2)C=CC1=N [basic-fuchsin]	1.81 µM	1.96 µM	1.93 µM	1.54 µM	1.47 µM	7.9	7.1	6.6	6.6	7.9	102%	97%	104%	83%	7.8%	97.8%	97.9%	95.2%	86.5%	12.8%	92.3%	102%	103%	87.1%	19.5%	97.2%	91%	94.8%	82.3%	29.8%	88.8%	92.4%	106%	77.6%	18.6%
CS(=O)(=O)c1ccc([C@@H](CC2CCCC2)C(=O)Nc2nccs2)cc1 [Ro-28-1675]	> 10 µM	> 10 µM	> 10 µM	> 10 µM	> 10 µM	0	0	0	0	0	97.2%	96.4%	108%	90.8%	103%	101%	96.1%	101%	102%	98.9%	103%	100%	114%	99.6%	99.3%	95.5%	95.2%	96.8%	91.1%	98.9%	92%	97.8%	102%	106%	92.2%
